Series [1] is described as follows: Metabolic stability in Hμrel human hepatocyte co-culture. The following applies: human.
In series [2] the test system is human hepatocytes (Hμrel HumanPool co-culture). The description is as above.
The subject of another series is human hepatocytes. The experiment in a line: Metabolite identification in human hepatocyte suspension. The following applies: 5-MeO-DMT free base 10 μM, incubated up to 120 minutes. The method, then:
For incubations with cryopreserved hepatocytes, the 2 mM stock solution was diluted with Leibovitz L-15 medium to a concentration of 20 μM or 2 μM. An aliquot (250 μL) of the 20 μM and 2 μM test substance formulations was added to each hepatocyte incubation sample (250 μL), as appropriate, so that the final test substance concentration in the incubations was 10 μM or 1 μM, respectively, and incubations contained less than 1% (v/v) solvent.
Incubations were performed at ca. 37° C. in a shaking water bath (total incubation volume 0.5 mL). For 1 μM, incubations were terminated after 0, 5, 10, 20, 30, 60 and 120 minutes, by the addition of ice-cold acetonitrile (0.5 mL).
The samples were vortex mixed and centrifuged at ca 13,000 rpm for 10 minutes at room temperature. Following centrifugation, the protein-free supernatants were removed for analysis.
Blank control incubations were carried out with Leibovitz L-15 medium in place of the test substance. No cells control samples were performed with Leibovitz L-15 medium in place of hepatocytes. Aliquots of the blank control samples were taken at 120 minutes, while no cells control samples were taken at 0, 30 and 120 for 1 μM incubations and at 0 and 120 minutes for 10 μM incubations.
All 1 μM incubations were performed in duplicate, while all 10 μM incubations were performed in singlet. All samples were stored at −80° C. (nominal) prior to analysis.
Prior to sample analysis a 100 μL aliquot of each sample was evaporated to near dryness under a steady stream of nitrogen at room temperature, and subsequently reconstituted in 50 μL of mobile phase A (0.1% formic acid in water). Each sample (0, 30 and 120-minute, 10 μM) was analysed using accurate mass LC-MS to determine relative levels of parent compound at each time-point, and determine the profile of metabolites formed. Appropriate blank and control samples were also analysed. The 10 and 60-minute, 10 μM incubation samples were not analysed and were stored at −80° C. (nominal). […]

The target of another series is T1, 5-HT2A receptors (Homo sapiens, UniProt P28223).
T1 construct: frontal cortical membranes (400 μl; equivalent 4 mg wet weight tissue/tube) was incubated with 50 μl of 0.1 nM; tissue Edinburgh Sudden Death Brain Bank; host or cells: post-mortem human frontal cortex membranes
The experiment in a line: Radioligand ([3H]MDL-100,907) binding to 5-HT2A receptors in post-mortem human frontal cortex membranes.

In a further series the target is T2, 5-HT1A receptors (Homo sapiens, UniProt P08908).
T2 construct: hippocampal membranes (400 μl; equivalent 1.25 mg wet weight tissue/tube) were incubated with 50 μl of 0.6 nM; tissue Edinburgh Sudden Death Brain Bank; host or cells: post-mortem human hippocampus membranes
T2 sequence (P08908 1-422): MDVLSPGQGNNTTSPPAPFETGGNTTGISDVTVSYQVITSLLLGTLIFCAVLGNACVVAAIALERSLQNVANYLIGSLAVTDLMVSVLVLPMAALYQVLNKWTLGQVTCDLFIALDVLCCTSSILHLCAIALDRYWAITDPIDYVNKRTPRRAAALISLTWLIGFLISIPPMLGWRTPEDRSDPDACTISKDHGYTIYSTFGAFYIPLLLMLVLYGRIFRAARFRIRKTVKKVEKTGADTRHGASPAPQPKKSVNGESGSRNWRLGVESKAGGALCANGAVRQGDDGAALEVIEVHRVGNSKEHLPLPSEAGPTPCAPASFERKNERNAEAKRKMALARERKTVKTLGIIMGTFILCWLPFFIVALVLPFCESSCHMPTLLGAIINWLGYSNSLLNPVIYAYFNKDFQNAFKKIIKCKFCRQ
Kind of series: Radioligand ([3H]8-OH-DPAT) binding to 5-HT1A receptors in post-mortem human hippocampus membranes.

T1 sequence (P28223 whole entry): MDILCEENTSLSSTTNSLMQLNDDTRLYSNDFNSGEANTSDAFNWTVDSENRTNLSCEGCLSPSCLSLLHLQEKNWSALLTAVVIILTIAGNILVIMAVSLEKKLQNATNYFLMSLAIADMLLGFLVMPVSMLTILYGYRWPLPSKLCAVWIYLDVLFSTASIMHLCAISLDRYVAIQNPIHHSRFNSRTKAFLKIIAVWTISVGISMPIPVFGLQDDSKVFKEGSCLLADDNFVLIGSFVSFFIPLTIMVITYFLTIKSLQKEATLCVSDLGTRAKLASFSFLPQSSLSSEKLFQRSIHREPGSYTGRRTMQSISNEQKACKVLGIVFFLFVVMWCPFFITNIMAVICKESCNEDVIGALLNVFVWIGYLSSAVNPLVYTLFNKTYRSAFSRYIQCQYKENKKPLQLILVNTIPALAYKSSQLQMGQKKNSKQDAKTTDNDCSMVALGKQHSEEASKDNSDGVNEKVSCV

Broadly, the half-life is how long it takes for the measured level to halve. High values mean slow decline, low ones rapid decline. In general, hepatocyte CLint refers to a measure of how fast metabolising enzymes remove a compound, apart from limits set by blood flow. A high value points to faster metabolism. In turn, `COc1ccc2[nH]cc(CCO)c2c1` [5-methoxytryptophol, 5-Methoxyindole-3-ethanol] gave a half-life at 1 µM in series [1] of 2.37 h. In series [1], this molecule displayed a hepatocyte CLint at 1 µM of 16.2 µL/min/1e6 cells. The “Disappearance with stromal cell controls” value in series [2] (0-72 h) is reported as “no disappearance”. The “Relative LC/MS peak area remaining” value in series [2] (1 μM Hepatocytes, 0 h) is 100%; in series [2] (1 μM Hepatocytes, 1 h) it was 79%; in series [2] (1 μM Hepatocytes, 2 h), 57%; in series [2] (1 μM Hepatocytes, 4 h) it was 33%; in series [2] (1 μM Hepatocytes, 8 h) it was 10%; in series [2] (1 μM Hepatocytes, 24 h), 0%. Moreover, the “Relative LC/MS peak area remaining” value in series [2] (1 μM Hepatocytes, 48 h) turned out to be 0%; in series [2] (1 μM Hepatocytes, 72 h) it was 0%; in series [2] (1 μM Stromal cells, 0 h), 100%; in series [2] (1 μM Stromal cells, 4 h), 97%; in series [2] (1 μM Stromal cells, 8 h) it was 107%; in series [2] (1 μM Stromal cells, 24 h) it was 94%. Moreover, the “Relative LC/MS peak area remaining” value in series [2] (1 μM Stromal cells, 48 h) is recorded as 102%; in series [2] (1 μM Stromal cells, 72 h), 104%; in series [2] (10 μM Hepatocytes, 0 h), 100%; in series [2] (10 μM Hepatocytes, 1 h), 87%; in series [2] (10 μM Hepatocytes, 2 h) it was 81%; in series [2] (10 μM Hepatocytes, 4 h) it was 68%. In addition, the “Relative LC/MS peak area remaining” value is on record as 42% in series [2] (10 μM Hepatocytes, 8 h); 1% in series [2] (10 μM Hepatocytes, 24 h); 0% in series [2] (10 μM Hepatocytes, 48 h); 0% in series [2] (10 μM Hepatocytes, 72 h); 100% in series [2] (10 μM Stromal cells, 0 h); 99% in series [2] (10 μM Stromal cells, 4 h). Further, the “Relative LC/MS peak area remaining” value in series [2] (10 μM Stromal cells, 8 h) was 105%; in series [2] (10 μM Stromal cells, 24 h) it was 86%; in series [2] (10 μM Stromal cells, 48 h) it was 98%; in series [2] (10 μM Stromal cells, 72 h), 104%. Besides, in series [2] (24h), the “Metabolic turnover in the presence of hepatocytes” value is reported as “complete disappearance”. Moreover, the “Predicted hepatic extraction ratio” value in series [2] (human) was 67%. For the same molecule, in the series with human hepatocytes, the “Relative Proportion of compounds identified” value turned out to be 25%.
A word on the Ki: it is a dissociation constant, usually derived from enzyme kinetics or from competition with a known ligand. Read a low Ki as tighter binding. `CN(C)CCc1c[nH]c2ccccc12` [DMT, N,N-dimethyltryptamine] showed an inhibition constant Ki at 5-HT2A receptors of 117 nM.
For the molecule `CN(C)CCc1c[nH]c2cccc(O)c12` [psilocin], the affinity at 5-HT1A receptors corresponds to a Ki of 48 nM.

Values taken from patent US20240108601A1, “TREATMENT OF MENTAL DISORDERS” (GH Research Ireland Limited, priority 2022, published 2024).
